Experimental findings from ChEMBL document CHEMBL3593199, “Guaianolides and a seco-Eudesmane from the Resinous Exudates of Cushion Bush (Leucophyta brownii) and Evaluation of Their Cytostatic and Anti-inflammatory Activity” (J Nat Prod, 2015) are described below.

Experiment [1] has as its system RAW264.7. Description: Anti-inflammatory activity in mouse RAW264.7 cells assessed as inhibition of LPS-induced thromboxane B2 production incubated for 48 hrs by ELISA method. The settings on record: RAW264.7, 48 h. In kind it is functional, cell-based. In general terms: An ELISA detects its analyte on a solid surface through an enzyme-linked reagent.
Experiment [2] concerns RAW264.7. Nature of the experiment: Anti-inflammatory activity in mouse RAW264.7 cells assessed as inhibition of LPS-induced prostaglandin E2 production incubated for 48 hrs by ELISA method. Format: functional, cell-based. The settings on record: RAW264.7, 48 h.
For another experiment, the system named is MCF7. Description: Cytostatic activity against human MCF7 cells incubated for 6 days by alamar blue reagent based resazurin metabolism assay. In kind it is functional, cell-based. To be noted: MCF7, 144 h. (In general: The colour change of resazurin is a common sign of viable cells or microbes.)
The test system of another experiment is HT-29. Nature of the experiment: Cytostatic activity against human HT-29 cells incubated for 72 hrs by alamar blue reagent based resazurin metabolism assay. In kind it is functional, cell-based. The settings on record: HT-29, 72 h.
Experiment [3] relates to RAW264.7. Nature of the experiment: Anti-inflammatory activity in mouse RAW264.7 cells assessed as inhibition of LPS-induced prostaglandin E2 production at 10 uM incubated for 48 hrs by ELISA method. In kind it is functional. The settings on record: RAW264.7, 48 h.
The subject of experiment [4] is RAW264.7. Nature of the experiment: Anti-inflammatory activity in mouse RAW264.7 cells assessed as inhibition of LPS-induced thromboxane B2 production at 10 uM incubated for 48 hrs by ELISA method. Format: functional. The settings on record: RAW264.7, 48 h.

SMILES strings stand for the structures. Some results are limits rather than exact numbers.

As usually defined, the IC50 is the concentration at which inhibition is half-maximal. As to `C=C1C(=O)O[C@@H]2C[C@](C)(O)C3=CC[C@@](C)(O)[C@@H]3C[C@H]12`, the IC50 in the experiment with RAW264.7 [1] stood at 37.5 µM; in the experiment on RAW264.7 [2], 21.2 µM.
As to `C=C1C(=O)O[C@@H]2C[C@H](C)C3=CC[C@@](C)(O)[C@@H]3C[C@H]12`, the half-maximal inhibitory concentration (IC50) amounted to 24.2 µM with MCF7, 28.2 µM with HT-29, 17.7 µM with RAW264.7 [1] and 6.5 µM with RAW264.7 [2].
Take `C=C1C(=O)O[C@@H]2C[C@H](C)[C@]34O[C@H]3C[C@@](C)(O)[C@@H]4C[C@H]12`: the IC50 in the experiment with MCF7 came to 12.1 µM; in the experiment on HT-29 it was 18.6 µM; with RAW264.7 [1], 11.7 µM; with RAW264.7 [2], 3 µM.
Regarding `C=C1C(=O)O[C@@H]2C[C@H](C)[C@]34O[C@H]3C[C@@](C)(OC(C)=O)[C@@H]4C[C@H]12`, the IC50 in the experiment on MCF7 was 6.9 µM; in the experiment on HT-29, 14.1 µM; with RAW264.7 [1] it was 6.5 µM; with RAW264.7 [2], 0.7 µM.
Turning to `C=C1C(=O)O[C@@H]2C[C@H](C)[C@]3(O)[C@@H](C[C@H]12)[C@](C)(OC(C)=O)C[C@@H]3O`, the concentration for half-maximal inhibition (IC50) came to 27.2 µM with MCF7, 29.3 µM in the experiment with HT-29, 34.6 µM in the experiment on RAW264.7 [1] and 10.5 µM in the experiment on RAW264.7 [2].
For `C=C1C(=O)O[C@@H]2C[C@H](C)[C@]34O[C@](C)(C[C@@H]3OC(C)=O)[C@@H]4C[C@H]12`, in that order: above 65 µM, above 65 µM, 38.6 µM and 16.3 µM.
Regarding `C=C1C(=O)O[C@@H]2CC(C)=C3CC[C@@](C)(O)[C@@H]3C[C@H]12`, the IC50 was 13.7 µM in the experiment with MCF7, 18.1 µM in the experiment with HT-29, 12.9 µM in the experiment on RAW264.7 [1] and 3.2 µM with RAW264.7 [2].
With `C=C1C(=O)O[C@@H]2CC(C)=C3CC[C@@](C)(OC(C)=O)[C@@H]3C[C@H]12`, the half-maximal inhibitory concentration (IC50) in the experiment with MCF7 stood at 8 µM; in the experiment on HT-29, 4.8 µM; in the experiment on RAW264.7 [1], 2.6 µM; in the experiment on RAW264.7 [2] it was 3.5 µM.
As for `C=C(CO)[C@@H]1CCC(C)=C([C@H](C)CCC(=O)O)C1`, the 50% inhibitory concentration (IC50) in the experiment on MCF7, in the experiment with HT-29, with RAW264.7 [1] and in the experiment on RAW264.7 [2] was above 79 µM in each case.
Broadly, the inhibition is how much of the control response was suppressed. On to `C[C@]12CCC(=O)C=C1CC[C@@H]1[C@@H]2[C@@H](O)C[C@@]2(C)[C@H]1CC[C@]2(O)C(=O)CO` [HYDROCORTISONE], for which the inhibition at 10 µM in the experiment on RAW264.7 [3] was 21%; with RAW264.7 [4] it was 42%.
For `C=C1C(=O)O[C@@H]2C[C@H](C)C(CCC(C)=O)=CC[C@H]12` [TOMENTOSIN], the IC50 turned out to be 26.6 µM with MCF7, 56.5 µM in the experiment on HT-29, 15.7 µM in the experiment with RAW264.7 [1] and 7.3 µM in the experiment with RAW264.7 [2].
